Values joined by “and” are separate entries in the source; they are usually repeats but may differ in a detail not shown here. Identical values can stand only once. “Also recorded” adds a separate entry of the source.
Legend:
[1] = Safety evaluation: single dose 100 mg/kg by gavage, one week observation; assay type: in vivo, ICR mouse
Method: After grouping, each compound was administrated once through gavage according to the dose of 100 mg/kg at the same time.

[2] = Pharmacokinetics of DC291407 and metabolites in rats (LC-MS/MS); assay type: in vivo, Sprague-Dawley (SD) rats
Method: The concentration of metabolite M1 (4071001), metabolite M2 (407002) or metabolite M3 (407003) in plasma was determined by LC-MS/MS method after DC291407 was administrated to the rats through gavage and intravenous injection.
The LC/MS/MS used is triple quadruple LC/MS 6460 from Agilent.
Six healthy male Sprague-Dawley (SD) rats with the weight of 180-220 g were randomly divided into 2 groups. The rats in each group were administrated with the tested compound by gavage or intravenous injection, respectively.
The compound was dissolved in 6.7% DMSO/6.7% Tween/86.6% normal saline.
The rats fasted for 12 h and can drink water ad libitum. 2 h after dosing, the rats were provided with food all together. The time point for collecting blood samples and the sample processing are listed as follows.
Intragastric administration: 0.25, 0.5, 1.0, 2.0, 3.0, 4.0, 6.0, 8.0 and 24 h after administration;
Intravenous administration: 5 min, 0.25, 0.5, 1.0, 2.0, 4.0, 6.0, 8.0 and 24 h after administration. At above time point, 0.3 ml venous blood was taken from retrobulbar venous plexus of the rat and loaded into heparinization tube. After centrifuged at 11000 rpm for 5 min, the plasma was separated and frozen at −20° C. in a refrigerator.

[3] = normal ICR mouse, 100 mg/kg single dose, 7th day
[4] = normal ICR mouse, 100 mg/kg single dose, 1 d after administration
[5] = normal ICR mouse, 100 mg/kg single dose, 2 d after administration
[6] = normal ICR mouse, 100 mg/kg single dose, 3 d after administration
[7] = normal ICR mouse, 100 mg/kg single dose, 4 d after administration
[8] = normal ICR mouse, 100 mg/kg single dose, 5 d after administration
[9] = normal ICR mouse, 100 mg/kg single dose, 6 d after administration
[10] = normal ICR mouse, 100 mg/kg single dose, 7 d after administration
[11] = normal ICR mouse, 100 mg/kg single dose, before administration
[12] = gavage 20 mg/kg DC291407, average of 3 animals
[13] = gavage 20 mg/kg DC291407, individual animals, 20 mg/kg
[14] = gavage 20 mg/kg DC291407, time 0 h, individual animals, BLQ = below lower quantification
[15] = gavage 20 mg/kg DC291407, time 0.25 h, individual animals, 20 mg/kg
[16] = gavage 20 mg/kg DC291407, time 0.5 h, individual animals, 20 mg/kg

## COC(=O)c1cc2nc(N3CCCC(N)C3)n(Cc3ccccc3C#N)c(=O)c2s1 (stereo not drawn) [DC291407]
[1]; ICR mouse, 100 mg/kg single dose
  effect on body weight (conclusion): possibly had no effect on body weight
[1]; ICR mouse, 100 mg/kg single dose by gavage, one week
  acute toxicity: did not reflect obvious acute toxicity
[1]; ICR mouse, 100 mg/kg single dose, from second day to 7 days, 100 mg/kg
  body weight versus normal control group (statistics): significant statistical difference
[1]; ICR mouse, 100 mg/kg, 7th day after administration
  kidney index versus normal control group (in words): did not significantly differ
[1]; ICR mouse, 100 mg/kg, 7th day after administration, 100 mg/kg
  spleen index versus normal control group (in words): significantly increased
[1]; ICR mouse, 100 mg/kg, 7th day after administration, listed as DC29147, 100 mg/kg
  spleen index versus normal control group (in words): statistical difference
[1]; [3]
  Kidney index: 1.5 ± 0.2%
  Liver index: 5.3 ± 0.4%
  Spleen index: 0.4 ± 0.0 %
[1]; [4]
  body weight: 30.0 ± 1.6 g
  food consumption: 18.4 g · day^−1 · cage^−1
[1]; [5]
  body weight: 30.0 ± 1.7 g
  food consumption: 18.5 g · day^−1 · cage^−1
[1]; [6]
  body weight: 29.7 ± 1.9 g
  food consumption: 19.0 g · day^−1 · cage^−1
[1]; [7]
  body weight: 30.0 ± 1.5 g
  food consumption: 19.4 g · day^−1 · cage^−1
[1]; [8]
  body weight: 30.5 ± 1.5 g
  food consumption: 22.3 g · day^−1 · cage^−1
[1]; [9]
  body weight: 30.4 ± 1.8 g
  food consumption: 22.6 g · day^−1 · cage^−1
[1]; [10]
  body weight: 30.6 ± 1.9 g
  food consumption: 23.5 g · day^−1 · cage^−1
[1]; [11]
  body weight: 29.7 ± 1.8 g
  food consumption: 21.4 g · day^−1 · cage^−1
[2]; gavage 20 mg/kg DC291407
  concentration of M2 in plasma samples collected within one hour after administration: below 20 ng/ml
  metabolite M3 in plasma: can not be detected
  prototype compound in plasma: can not be detected
[2]; gavage 20 mg/kg DC291407, 20 mg/kg
  main component in plasma: mainly contained hydrolysis-metabolite M1; also recorded: mainly contained hydrolysis-metabolite Ml
[2]; [12]
  AUC0-t of metabolite M1: 9860 ng·h/mL
  AUC0-∞ of metabolite M1: 9968 ng·h/mL
  Cmax of metabolite M1: 6039 ng/mL
  MRT of metabolite M1: 2.58 h
  Tmax of metabolite M1: 0.33 h
  t1/2 of metabolite M1: 5.63 h
[2]; gavage 20 mg/kg DC291407, dose-normalized, based on AUC of metabolite M1
  F, absolute bioavailability: 22.1%
[2]; [13]
  AUC0-t of metabolite M1: 8191 ng·h/mL and 5758 ng·h/mL and 15633 ng·h/mL
  AUC0-∞ of metabolite M1: 8292 ng·h/mL and 5907 ng·h/mL and 15706 ng·h/mL
  Cmax of metabolite M1: 4435 ng/mL and 3427 ng/mL and 10255 ng/mL
  MRT of metabolite M1: 2.86 h and 3.15 h and 1.74 h
  Tmax of metabolite M1: 0.50 h and 0.25 h
  t1/2 of metabolite M1: 5.37 h and 7.97 h and 3.55 h
[2]; [14]
  Plasma concentration of metabolite M1: BLQ
  Plasma concentration of metabolite M2: BLQ
[2]; gavage 20 mg/kg DC291407, time 0.25 h, average of 3 animals
  Plasma concentration of metabolite M1: 5712 ng/mL
[2]; [15]
  Plasma concentration of metabolite M1: 3454 ng/mL and 3427 ng/mL and 10255 ng/mL
  Plasma concentration of metabolite M2: 3.87 ng/mL and 3.24 ng/mL and 16.3 ng/mL
[2]; gavage 20 mg/kg DC291407, time 0.5 h, average of 3 animals
  Plasma concentration of metabolite M1: 5975 ng/mL
[2]; [16]
  Plasma concentration of metabolite M1: 4435 ng/mL and 3404 ng/mL and 10087 ng/mL
  Plasma concentration of metabolite M2: 4.79 ng/mL and 3.94 ng/mL and 16.9 ng/mL
[2]; gavage 20 mg/kg DC291407, time 1.0 h, average of 3 animals
  Plasma concentration of metabolite M1: 3962 ng/mL
[2]; gavage 20 mg/kg DC291407, time 1.0 h, individual animals, 20 mg/kg
  Plasma concentration of metabolite M1: 3326 ng/mL and 1771 ng/mL and 6789 ng/mL
[2]; gavage 20 mg/kg DC291407, time 1.0 h, individual animals, BLQ = below lower quantification, 20 mg/kg
  Plasma concentration of metabolite M2: 3.88 ng/mL and BLQ and 10.7 ng/mL
[2]; gavage 20 mg/kg DC291407, time 2.0 h, average of 3 animals
  Plasma concentration of metabolite M1: 1117 ng/mL
[2]; gavage 20 mg/kg DC291407, time 2.0 h, individual animals, 20 mg/kg
  Plasma concentration of metabolite M1: 690 ng/mL and 1091 ng/mL and 1569 ng/mL
[2]; gavage 20 mg/kg DC291407, time 2.0 h, individual animals, BLQ = below lower quantification
  Plasma concentration of metabolite M2: BLQ
[2]; gavage 20 mg/kg DC291407, time 3.0 h, average of 3 animals
  Plasma concentration of metabolite M1: 549 ng/mL
[2]; gavage 20 mg/kg DC291407, time 3.0 h, individual animals, 20 mg/kg
  Plasma concentration of metabolite M1: 476 ng/mL and 299 ng/mL and 872 ng/mL
[2]; gavage 20 mg/kg DC291407, time 3.0 h, individual animals, BLQ = below lower quantification
  Plasma concentration of metabolite M2: BLQ
[2]; gavage 20 mg/kg DC291407, time 4.0 h, average of 3 animals
  Plasma concentration of metabolite M1: 390 ng/mL
[2]; gavage 20 mg/kg DC291407, time 4.0 h, individual animals, 20 mg/kg
  Plasma concentration of metabolite M1: 500 ng/mL and 105 ng/mL and 565 ng/mL
[2]; gavage 20 mg/kg DC291407, time 4.0 h, individual animals, BLQ = below lower quantification
  Plasma concentration of metabolite M2: BLQ
[2]; gavage 20 mg/kg DC291407, time 6.0 h, average of 3 animals
  Plasma concentration of metabolite M1: 123 ng/mL
[2]; gavage 20 mg/kg DC291407, time 6.0 h, individual animals, 20 mg/kg
  Plasma concentration of metabolite M1: 138 ng/mL and 57.3 ng/mL and 173 ng/mL
[2]; gavage 20 mg/kg DC291407, time 6.0 h, individual animals, BLQ = below lower quantification
  Plasma concentration of metabolite M2: BLQ
[2]; gavage 20 mg/kg DC291407, time 8.0 h, average of 3 animals
  Plasma concentration of metabolite M1: 68.5 ng/mL
[2]; gavage 20 mg/kg DC291407, time 8.0 h, individual animals, 20 mg/kg
  Plasma concentration of metabolite M1: 97.1 ng/mL and 58.9 ng/mL and 49.5 ng/mL
[2]; gavage 20 mg/kg DC291407, time 8.0 h, individual animals, BLQ = below lower quantification
  Plasma concentration of metabolite M2: BLQ
[2]; gavage 20 mg/kg DC291407, time 24 h, average of 3 animals
  Plasma concentration of metabolite M1: 13.4 ng/mL
[2]; gavage 20 mg/kg DC291407, time 24 h, individual animals, 20 mg/kg
  Plasma concentration of metabolite M1: 13.0 ng/mL (2×) and 14.3 ng/mL
[2]; gavage 20 mg/kg DC291407, time 24 h, individual animals, BLQ = below lower quantification
  Plasma concentration of metabolite M2: BLQ
[2]; intravenous 10 mg/kg DC291407
  main component in plasma: mainly contained hydrolysis-metabolite M1
